What is called pIC50 is −log10 of the IC50, conventionally taken in molar units. A lower pIC50 goes with a large IC50.

Drawing on ChEMBL document CHEMBL1135656, “Molecular docking and 3D-QSAR studies on gag peptide analogue inhibitors interacting with human cyclophilin A” (J Med Chem, 2002), this text covers IC50 for 9 compounds.

This assay concerns the target Peptidyl-prolyl cis-trans isomerase A (Homo sapiens, UniProt P62937). The experiment in a line: In vitro inhibition of human Cyclophilin A/protein interaction.

pIC50: −log10 of the molar value. Starred links: 1 amine or outer side, 2 acyl side, 3 side chain; linkers in the order of their positions; H or OH if unused. Non-standard residues stand in square brackets, D forms with d. Residues, ends and D or L forms follow the SMILES beside them. *: point of attachment. Desaminohistidyl = O=C(CCc1c[nH]cn1)*; X1 = c1ccc(C(CCN*)c2ccccc2)cc1; NHPhenethyl = c1ccc(CCN*)cc1; X2 = O=C(C1CCCC1N[*:1])[*:2]; Isovaleryl = CC(C)CC(=O)*; NHBn = c1ccc(CN*)cc1

Peptidyl-prolyl cis-trans isomerase A, sequence (P62937 whole entry): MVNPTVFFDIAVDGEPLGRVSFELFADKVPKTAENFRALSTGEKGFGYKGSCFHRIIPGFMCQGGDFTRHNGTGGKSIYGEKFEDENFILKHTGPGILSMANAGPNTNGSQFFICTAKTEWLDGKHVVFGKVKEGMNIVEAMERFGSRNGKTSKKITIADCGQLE

The compound `CC(=O)N[C@H](C(=O)N[C@@H](Cc1c[nH]cn1)C(=O)N[C@@H](C)C(=O)NCC(=O)N1CCC[C@@H]1C(=O)N[C@@H](C(=O)N[C@@H](C)C(N)=O)c1ccccc1)C(C)C` showed a pIC50 of 3.09.
Regarding `CC(=O)N[C@H](C(=O)N[C@@H](Cc1c[nH]cn1)C(=O)N[C@@H](C)C(=O)NCC(=O)N1CCC[C@@H]1C(=O)N[C@H](C(=O)N[C@@H](C)C(N)=O)c1ccccc1)C(C)C`, the pIC50 is 3.01.
The same measure for `CC[C@H](C)[C@H](NC(=O)[C@@H]1CCCN1C(=O)CNC(=O)[C@H](C)NC(=O)[C@H](Cc1c[nH]cn1)NC(=O)[C@@H](NC(C)=O)C(C)C)C(=O)NCCc1ccccc1` (Ac-VHAGPI-NHPhenethyl): 3.49.
Regarding `CC[C@H](C)[C@H](NC(=O)[C@@H]1CCCN1C(=O)CNC(=O)[C@H](C)NC(=O)[C@H](Cc1cnc[nH]1)NC(=O)[C@@H](NC(C)=O)C(C)C)C(=O)NCCC(c1ccccc1)c1ccccc1` (Ac-VHAGPI-X1), the pIC50 was 3.44.
The same measure for `CC(=O)N[C@H](C(=O)N[C@@H](Cc1c[nH]cn1)C(=O)N[C@@H](C)C(=O)NCC(=O)N1CCC[C@H]1C(=O)NC1CCCC1C(=O)N[C@@H](C)C(N)=O)C(C)C` (some centres undefined) (Ac-VHAGP[X2]A-NH2): 3.17.
Consider `CC[C@H](C)[C@H](NC(=O)[C@@H]1CCCN1C(=O)CNC(=O)[C@H](C)NC(=O)CCc1cnc[nH]1)C(=O)N[C@@H](C)C(N)=O` (Desaminohistidyl-AGPIA-NH2), for which the pIC50 is 2.59.
In turn, `CC[C@H](C)[C@H](NC(=O)[C@@H]1CCCN1C(=O)CNC(=O)[C@H](C)NC(=O)[C@H](Cc1cnc[nH]1)NC(=O)CC(C)C)C(=O)N[C@@H](C)C(N)=O` (Isovaleryl-HAGPIA-NH2) gave a pIC50 of 3.78.
To `CC(C)CC(=O)N[C@@H](Cc1cnc[nH]1)C(=O)N[C@@H](C)C(=O)NCC(=O)N1CCC[C@H]1C(=O)NC1CCCC1C(=O)NCc1ccccc1` (some centres undefined) (Isovaleryl-HAGP[X2]-NHBn) belongs 4.05; to H-HAGPIA-OH, 2.70.
